Results on 24 molecules are retold here after ChEMBL document CHEMBL1134862, “Rational design of 4,5-disubstituted-5,7-dihydro-pyrrolo[2,3-d]pyrimidin-6-ones as a novel class of inhibitors of epidermal growth factor receptor (EGF-R) and Her2(p185(erbB)) tyrosine kinases” (Bioorg Med Chem Lett, 2002).

Test [1] addresses Platelet-derived growth factor receptor beta (Homo sapiens, UniProt P09619). The test is described as follows: Inhibitory activity towards tyrosine phosphorylation of PDGF-receptor beta kinase.
Test [2] deals with Receptor tyrosine-protein kinase erbB-2 (Homo sapiens, UniProt P04626). Put plainly: Inhibition of autophosphorylation of human Her (p185erbB) tyrosine kinase expressed in SKOV-3 cells. The test is classed as functional, cell-based, SK-OV-3.
Test [3] addresses T1, Epidermal growth factor receptor (Homo sapiens, UniProt P00533). Put plainly: Inhibition of autophosphorylation of human epidermal growth factor-receptor (EGF-R) expressed in A431 cells. Type of test: functional, cell-based, A-431.
Test [4] deals with Vascular endothelial growth factor receptor 2 (Homo sapiens, UniProt P35968). Put plainly: Inhibition of tyrosine phosphorylation in cells expressing human VEGFR2 (Flk-1/KDR) kinase.
The target of test [5] is T1, Epidermal growth factor receptor. Put plainly: Inhibitory activity towards tyrosine phosphorylation for the epidermal growth factor-receptor kinase.

Receptor tyrosine-protein kinase erbB-2, sequence (P04626 whole entry): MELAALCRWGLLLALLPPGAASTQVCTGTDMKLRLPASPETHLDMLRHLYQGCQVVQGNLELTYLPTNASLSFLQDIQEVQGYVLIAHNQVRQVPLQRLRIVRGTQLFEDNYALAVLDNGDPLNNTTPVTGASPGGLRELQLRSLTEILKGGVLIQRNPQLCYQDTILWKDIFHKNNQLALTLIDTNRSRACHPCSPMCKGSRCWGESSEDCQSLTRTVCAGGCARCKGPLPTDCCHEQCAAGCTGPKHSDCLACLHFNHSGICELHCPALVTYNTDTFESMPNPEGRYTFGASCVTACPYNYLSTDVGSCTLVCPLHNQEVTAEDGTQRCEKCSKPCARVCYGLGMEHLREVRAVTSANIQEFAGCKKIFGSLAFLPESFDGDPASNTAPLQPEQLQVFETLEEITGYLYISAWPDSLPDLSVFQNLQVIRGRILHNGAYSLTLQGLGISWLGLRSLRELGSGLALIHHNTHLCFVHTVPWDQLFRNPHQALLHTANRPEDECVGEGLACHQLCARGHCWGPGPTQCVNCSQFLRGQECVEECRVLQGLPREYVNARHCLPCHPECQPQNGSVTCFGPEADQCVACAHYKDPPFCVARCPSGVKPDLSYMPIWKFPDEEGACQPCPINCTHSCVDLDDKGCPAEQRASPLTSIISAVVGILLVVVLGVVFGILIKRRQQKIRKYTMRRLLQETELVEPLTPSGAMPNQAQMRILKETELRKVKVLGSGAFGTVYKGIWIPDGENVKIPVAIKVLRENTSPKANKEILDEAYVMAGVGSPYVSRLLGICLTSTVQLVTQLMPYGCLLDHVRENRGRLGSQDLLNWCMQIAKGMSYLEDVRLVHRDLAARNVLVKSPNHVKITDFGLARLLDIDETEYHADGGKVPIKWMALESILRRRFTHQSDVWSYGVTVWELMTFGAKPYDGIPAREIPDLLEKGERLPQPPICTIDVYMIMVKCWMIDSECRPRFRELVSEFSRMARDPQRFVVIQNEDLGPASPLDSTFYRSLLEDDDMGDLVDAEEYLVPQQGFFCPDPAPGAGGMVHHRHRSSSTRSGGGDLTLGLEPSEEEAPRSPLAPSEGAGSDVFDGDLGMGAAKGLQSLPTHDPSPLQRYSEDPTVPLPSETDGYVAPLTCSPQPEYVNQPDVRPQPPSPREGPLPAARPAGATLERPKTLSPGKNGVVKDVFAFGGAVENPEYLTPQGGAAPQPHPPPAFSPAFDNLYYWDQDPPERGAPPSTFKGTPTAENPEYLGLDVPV
Vascular endothelial growth factor receptor 2, sequence (P35968 whole entry): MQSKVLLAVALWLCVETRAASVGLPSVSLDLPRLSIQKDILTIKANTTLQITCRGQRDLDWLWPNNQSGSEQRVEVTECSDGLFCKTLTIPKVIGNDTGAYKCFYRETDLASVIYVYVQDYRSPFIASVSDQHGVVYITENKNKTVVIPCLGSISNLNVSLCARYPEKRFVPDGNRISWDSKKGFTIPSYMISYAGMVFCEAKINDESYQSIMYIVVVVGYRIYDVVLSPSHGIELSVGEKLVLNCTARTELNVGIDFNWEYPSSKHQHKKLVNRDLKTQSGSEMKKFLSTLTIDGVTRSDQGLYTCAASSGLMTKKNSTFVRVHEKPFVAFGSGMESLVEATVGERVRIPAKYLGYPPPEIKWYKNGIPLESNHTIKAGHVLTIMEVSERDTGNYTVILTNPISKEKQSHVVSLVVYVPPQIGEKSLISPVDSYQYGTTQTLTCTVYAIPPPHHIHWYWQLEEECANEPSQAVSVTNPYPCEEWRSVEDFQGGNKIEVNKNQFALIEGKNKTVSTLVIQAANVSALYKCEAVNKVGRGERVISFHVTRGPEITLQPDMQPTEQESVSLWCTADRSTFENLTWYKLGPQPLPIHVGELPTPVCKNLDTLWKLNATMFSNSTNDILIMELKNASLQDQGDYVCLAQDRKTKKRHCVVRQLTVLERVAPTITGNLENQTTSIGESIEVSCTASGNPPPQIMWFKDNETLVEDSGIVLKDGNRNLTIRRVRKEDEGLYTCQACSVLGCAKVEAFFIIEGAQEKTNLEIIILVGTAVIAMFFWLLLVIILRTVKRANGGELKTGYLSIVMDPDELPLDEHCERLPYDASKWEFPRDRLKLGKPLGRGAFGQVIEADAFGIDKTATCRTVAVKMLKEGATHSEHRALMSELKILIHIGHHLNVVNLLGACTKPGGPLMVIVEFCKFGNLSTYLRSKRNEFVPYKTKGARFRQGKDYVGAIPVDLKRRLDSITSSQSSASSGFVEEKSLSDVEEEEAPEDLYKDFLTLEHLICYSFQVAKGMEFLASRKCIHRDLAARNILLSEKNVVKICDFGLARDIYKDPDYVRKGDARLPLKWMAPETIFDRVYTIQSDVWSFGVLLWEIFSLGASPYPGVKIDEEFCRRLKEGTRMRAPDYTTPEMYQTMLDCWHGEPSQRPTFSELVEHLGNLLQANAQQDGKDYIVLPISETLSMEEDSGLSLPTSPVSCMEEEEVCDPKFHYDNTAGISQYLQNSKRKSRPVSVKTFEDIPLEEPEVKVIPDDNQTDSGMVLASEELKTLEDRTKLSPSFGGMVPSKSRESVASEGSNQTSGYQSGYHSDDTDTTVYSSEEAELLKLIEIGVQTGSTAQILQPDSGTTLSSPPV
T1 sequence (P00533 whole entry): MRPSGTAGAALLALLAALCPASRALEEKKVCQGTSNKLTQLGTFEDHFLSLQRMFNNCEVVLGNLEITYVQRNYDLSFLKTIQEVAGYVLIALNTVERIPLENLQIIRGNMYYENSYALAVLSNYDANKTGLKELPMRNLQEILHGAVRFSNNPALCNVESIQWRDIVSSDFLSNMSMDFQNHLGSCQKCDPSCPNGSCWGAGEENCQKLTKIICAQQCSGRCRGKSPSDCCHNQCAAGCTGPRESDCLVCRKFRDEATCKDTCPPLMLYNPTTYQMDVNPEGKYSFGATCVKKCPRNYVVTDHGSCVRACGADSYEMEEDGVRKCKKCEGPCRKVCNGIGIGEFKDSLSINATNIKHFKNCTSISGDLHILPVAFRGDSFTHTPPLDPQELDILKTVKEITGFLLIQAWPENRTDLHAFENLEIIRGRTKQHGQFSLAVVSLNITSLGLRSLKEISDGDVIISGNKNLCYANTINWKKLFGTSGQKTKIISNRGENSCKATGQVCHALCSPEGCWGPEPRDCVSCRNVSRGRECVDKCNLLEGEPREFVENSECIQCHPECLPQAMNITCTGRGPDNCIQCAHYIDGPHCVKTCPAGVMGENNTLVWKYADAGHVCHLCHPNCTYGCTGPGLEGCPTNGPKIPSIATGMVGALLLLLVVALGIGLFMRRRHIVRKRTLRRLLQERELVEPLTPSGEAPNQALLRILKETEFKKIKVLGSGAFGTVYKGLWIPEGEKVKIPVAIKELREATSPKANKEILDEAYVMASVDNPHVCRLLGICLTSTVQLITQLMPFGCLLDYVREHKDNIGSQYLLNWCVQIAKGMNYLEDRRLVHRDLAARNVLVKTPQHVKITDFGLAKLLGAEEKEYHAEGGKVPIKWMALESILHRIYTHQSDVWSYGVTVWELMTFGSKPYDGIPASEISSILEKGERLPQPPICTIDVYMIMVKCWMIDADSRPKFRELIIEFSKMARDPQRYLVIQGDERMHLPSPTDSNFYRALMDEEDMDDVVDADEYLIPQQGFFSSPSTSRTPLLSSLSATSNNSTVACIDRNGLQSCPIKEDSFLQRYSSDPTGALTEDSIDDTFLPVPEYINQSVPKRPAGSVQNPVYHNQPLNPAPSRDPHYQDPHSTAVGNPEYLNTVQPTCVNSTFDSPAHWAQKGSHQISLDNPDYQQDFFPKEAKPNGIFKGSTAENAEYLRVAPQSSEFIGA
Platelet-derived growth factor receptor beta, sequence (P09619 whole entry): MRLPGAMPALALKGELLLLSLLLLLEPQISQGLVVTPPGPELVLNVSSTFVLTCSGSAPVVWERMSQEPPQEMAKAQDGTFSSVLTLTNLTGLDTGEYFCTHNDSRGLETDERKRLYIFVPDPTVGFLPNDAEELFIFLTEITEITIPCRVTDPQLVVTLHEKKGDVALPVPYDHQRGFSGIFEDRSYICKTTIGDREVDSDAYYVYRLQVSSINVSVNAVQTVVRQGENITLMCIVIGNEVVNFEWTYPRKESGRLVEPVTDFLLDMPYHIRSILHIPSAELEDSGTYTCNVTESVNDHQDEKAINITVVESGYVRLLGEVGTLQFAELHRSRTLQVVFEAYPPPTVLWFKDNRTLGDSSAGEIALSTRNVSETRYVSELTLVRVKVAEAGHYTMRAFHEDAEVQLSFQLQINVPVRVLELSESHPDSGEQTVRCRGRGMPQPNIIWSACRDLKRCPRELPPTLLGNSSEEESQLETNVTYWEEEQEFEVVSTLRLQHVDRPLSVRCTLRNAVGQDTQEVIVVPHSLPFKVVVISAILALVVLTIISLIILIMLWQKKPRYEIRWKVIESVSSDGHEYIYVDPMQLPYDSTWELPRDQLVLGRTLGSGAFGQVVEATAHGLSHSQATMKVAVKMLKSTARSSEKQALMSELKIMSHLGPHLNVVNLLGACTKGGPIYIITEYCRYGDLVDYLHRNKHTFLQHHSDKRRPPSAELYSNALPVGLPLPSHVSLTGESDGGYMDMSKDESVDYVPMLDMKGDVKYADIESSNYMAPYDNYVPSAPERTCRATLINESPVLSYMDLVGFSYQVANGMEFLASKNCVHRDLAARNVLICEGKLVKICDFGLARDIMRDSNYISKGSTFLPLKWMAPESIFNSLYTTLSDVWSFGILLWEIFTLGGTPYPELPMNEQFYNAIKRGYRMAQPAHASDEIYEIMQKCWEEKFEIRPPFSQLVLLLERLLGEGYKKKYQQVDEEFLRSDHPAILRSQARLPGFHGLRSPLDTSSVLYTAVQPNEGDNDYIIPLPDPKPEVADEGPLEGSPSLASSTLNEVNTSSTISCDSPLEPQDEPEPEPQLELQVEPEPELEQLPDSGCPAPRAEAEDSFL

With `Cc1cc(C(=O)NCCN2CCOCC2)[nH]c1/C=C1\C(=O)Nc2ncnc(Nc3ccc4c(ccn4Cc4ccccc4)c3)c21`, the IC50 (in general, the midpoint of a concentration-inhibition curve) in test [1] is above 100000 nM; in test [2], 40 nM; in test [3], 200 nM; in test [4], 3470 nM; in test [5], 1.1 nM.
With `O=C1Nc2ncnc(Nc3ccc(F)c(Cl)c3)c2/C1=C/c1ccc(C(=O)NCCN2CCOCC2)[nH]1`, the IC50 was above 100000 nM in test [1], above 20000 nM in test [4] and 22 nM in test [5].
Consider `CCN(CC)CC(O)CNC(=O)c1cc(C)c(/C=C2\C(=O)Nc3ncnc(Nc4ccc(F)c(Cl)c4)c32)[nH]1` (stereo not drawn), for which the IC50 was found to be 360 nM in test [4] and 0.45 nM in test [5].
For the molecule `Cc1c(C(=O)N2CCN(C)CC2)c[nH]c1/C=C1\C(=O)Nc2ncnc(Nc3ccc(F)c(Cl)c3)c21`, the results for the IC50 in test [1], in test [4] and in test [5] were above 20000 nM, above 20000 nM and 410 nM, respectively.
For `Cc1cc(C(=O)O)[nH]c1/C=C1\C(=O)Nc2ncnc(Nc3ccc(F)c(Cl)c3)c21`, the IC50 in test [1] is above 20000 nM; in test [2], above 5000 nM; in test [3], above 5000 nM; in test [4], 8920 nM; in test [5], 29 nM.
Take `Cc1cc(C(=O)N2CCN(C)CC2)[nH]c1/C=C1\C(=O)Nc2ncnc(Nc3ccc(F)c(Cl)c3)c21`: the IC50 in test [1] was above 20000 nM; in test [2], 200 nM; in test [3], 100 nM; in test [4], above 20000 nM; in test [5] it was 2.8 nM.
As to `Cc1[nH]c(/C=C2\C(=O)Nc3ncnc(Nc4ccc(F)c(Cl)c4)c32)c(C)c1CCC(=O)O`, the half-maximal inhibitory concentration (IC50) in test [1] is above 20000 nM; in test [4], above 20000 nM; in test [5], 180 nM.
`Cc1cc(CCC(=O)O)[nH]c1/C=C1\C(=O)Nc2ncnc(Nc3ccc(F)c(Cl)c3)c21`: the IC50 in test [1] is above 20000 nM; in test [4], above 20000 nM; in test [5], 4.7 nM.
Consider `CCN(CC)CCNC(=O)c1cc(C)c(/C=C2\C(=O)Nc3ncnc(Nc4ccc(Cl)cc4F)c32)[nH]1`, for which the IC50 came out at 5620 nM in test [1], 500 nM in test [3], 40 nM in test [4] and 450 nM in test [5].
For `CCN(CC)CCNC(=O)c1c(C)[nH]c(/C=C2\C(=O)Nc3ncnc(Nc4ccc(F)c(Cl)c4)c32)c1C`, the results for the half-maximal inhibitory concentration (IC50) in test [1], in test [4] and in test [5] were above 20000 nM, 3470 nM and 200 nM, respectively.
For `Cc1cc(C(=O)NCCN2CCOCC2)[nH]c1/C=C1\C(=O)N(C)c2ncnc(Nc3ccc(F)c(Cl)c3)c21`, in that order: above 20000 nM, 10100 nM and 5310 nM.
`Cc1cc(C(=O)N2CCOCC2)[nH]c1/C=C1\C(=O)Nc2ncnc(Nc3ccc4c(c3)CCC4)c21`: the IC50 in test [1] is above 20000 nM; in test [2], above 5000 nM; in test [3], 5000 nM; in test [4] it was 3460 nM; in test [5], 1410 nM.
For `CCN1CCN(C(=O)c2cc(C)c(/C=C3\C(=O)Nc4ncnc(Nc5ccc(F)c(Cl)c5)c43)[nH]2)CC1`, in that order: above 20000 nM, 100 nM, 200 nM, above 20000 nM and 13 nM.
For `Cc1cc(C(=O)N2CCOCC2)[nH]c1/C=C1\C(=O)Nc2ncnc(Nc3ccc4c(cnn4Cc4ccccc4)c3)c21` the same measures were above 10000 nM, 100 nM, 100 nM, 2100 nM and 1.8 nM.
For `Cc1cc(C(=O)N2CCOCC2)[nH]c1/C=C1\C(=O)Nc2ncnc(Nc3ccc4c(ccn4Cc4ccccc4)c3)c21`, in that order: above 20000 nM, 100 nM, 100 nM, 2050 nM and 4.5 nM.
As to `Cc1cc(C(=O)N2CCOCC2)[nH]c1/C=C1\C(=O)Nc2ncnc(N3CCCCC3)c21`, the IC50 in test [1], in test [4] and in test [5] was above 20000 nM in each case.
As for `Cc1cc(C)c(/C=C2\C(=O)Nc3ncnc(Nc4ccc(F)c(Cl)c4)c32)[nH]1`, the IC50 in test [1] is above 100000 nM; in test [2], 300 nM; in test [3] it was 300 nM; in test [4], 16500 nM; in test [5] it was 41 nM.
Turning to `Cc1cc(C(=O)N2CC(C)NC(C)C2)[nH]c1/C=C1\C(=O)Nc2ncnc(Nc3ccc(F)c(Cl)c3)c21` (stereo not drawn), the 50% inhibitory concentration (IC50) in test [1] is above 20000 nM; in test [2], 500 nM; in test [4], 1630 nM.
Take `CCN(CC)CCNC(=O)c1cc(C)c(/C=C2\C(=O)Nc3ncnc(Nc4ccc(F)c(Cl)c4)c32)[nH]1`: the IC50 in test [2] was 200 nM; in test [3] it was 200 nM; in test [4], 300 nM; in test [5], 1.2 nM.
Consider `Cc1cc(C(=O)NCCN2CCOCC2)[nH]c1/C=C1\C(=O)Nc2ncnc(Nc3ccc(F)c(Cl)c3)c21`, for which the IC50 is above 100000 nM in test [1], 100 nM in test [2] and above 20000 nM in test [4].
In the case of `Cc1cc(C)c(/C=C2\C(=O)N(C)c3ncnc(Nc4ccc(F)c(Cl)c4)c32)[nH]1`, the figures for the IC50 in test [1], in test [4] and in test [5] were above 20000 nM, 5820 nM and above 20000 nM, respectively.
`Cc1cc(C(=O)N2CCOCC2)[nH]c1/C=C1\C(=O)Nc2ncnc(Nc3ccc(F)c(Cl)c3)c21`: the IC50 in test [1] was above 20000 nM; in test [2], 400 nM; in test [3], 40 nM; in test [4], above 20000 nM; in test [5] it was 170 nM.
Consider `Cc1cc(/C=C2\C(=O)Nc3ncnc(Nc4ccc(F)c(Cl)c4)c32)[nH]c1C(=O)N1CCN(C)CC1`, for which the IC50 is above 20000 nM in test [1], above 20000 nM in test [4] and 210 nM in test [5].
As for `C#Cc1cccc(Nc2ncnc3c2/C(=C/c2[nH]c(C(=O)NCCN4CCOCC4)cc2C)C(=O)N3)c1`, the IC50 in test [1] is above 20000 nM; in test [2], 40 nM; in test [3], 40 nM; in test [4], above 20000 nM; in test [5], 18 nM.
